Measured values from patent US8633252B2, “Use of pterosin compounds for treating diabetes and obesity” (Taipei Medical University, priority 2009, dated 2014).

What was measured:
db/db mice [1] = test: HbA1C (Haemoglobin A1C) test in type II diabetic mice; format: in vivo; settings: 100 mg/kg/day orally for 28 days
Protocol: In the blood stream, glucose sticks to the haemoglobin to form a “glycosylated haemoglobin” molecule, called haemoglobin A1C or HbA1C. The more glucose in the blood, the more haemoglobin A1C or HbA1C will be present in the blood. The HbA1C test is currently one of the common ways to check if diabetes is under control. See, e.g. Diabetes Care. 2001; 24:465-471.
In this study, the db/db mice (Jackson Laboratory) were orally administered with Compound 1 (100 mg/kg/day) for 28 days. Subsequently, normal mice, db/db-mice, and the Compound 1-treated db/db-mice were subjected to a HbA1C test, which was conducted based on a method as described in Life Sci. 2005; 77:1391-403. Briefly, at the end of the experimental period, animals were sacrificed by exsanguinations under diethyl ether anesthesia. Plasma was separated from the blood by centrifugation. HbA1c in blood was measured by the standardized method.

C2C12 mycrotubes [2] = test: Glucose consumption/uptake assay; format: cell-based; settings: [14C]2-DG, incubated with compounds for 1 hour
Protocol: Differentiated C2C12 mycrotubes (American Type Culture Collection: ATCC) were used to conduct a glucose consumption/uptake assay, which was performed based on the method as described in Experimental and Molecular Medicine, Vol. 39, No. 2, 222-229, 2007. Briefly, the C2C12 cells were pretreated with 0.5 μCi [^14C]2-DG for 20 min and then incubated with compounds for 1 hour to determine glucose uptake by radio activity. All values are expressed as the means±S.E. of three experiments.

PEPCK mRNA = test: Phosphoenolpyruvate carboxykinase (PEPCK) mRNA expression assay in liver; format: in vivo; settings: STZ-induced diabetic mice, 100 mg/kg orally for 14 days, RT-PCR
Protocol: PEPCK is known as a key enzyme that controls gluconeogenesis in the liver. In this study, STZ-induced diabetic mice were treated with Compound 1 orally (100 mg/kg) for 14 days, and then normal mice, STZ-induced diabetic, and the Compound 1-treated STZ-mice described above were analyzed for the PEPCK mRNA expression in liver based on the method as described in Bulletin of Experimental Biology and Medicine 1979; 87: 568-571. Briefly, at the end of the experimental period, animals were sacrificed by exsanguinations under diethyl ether anesthesia. Livers from each animal were excised and weighed. The liver homogenates were prepared to determine the PEPCK mRNA expression by RT-PCR analysis.

db/db mice [3] = test: HOMA-IR test in type II diabetic mice; format: in vivo; settings: 100 mg/kg/day orally for 28 days
Protocol: HOMA-IR is expressed by an empirical mathematical formula based on fasting plasma glucose and fasting plasma insulin levels that was developed as a surrogate measurement of in vivo insulin sensitivity: HOMA value for insulin resistance: (HOMA-IR)=fasting insulin (μU/ml)×fasting glucose (mmol/l)/22.5. See, e.g., Biol. Pharm. Bull. 2007; 30:2196-2200.
In this study, the db/db mice (Jackson Laboratory) were orally administered with Compound 1 (100 mg/kg/day) for 28 days. Subsequently, normal mice, db/db-mice, and the Compound 1-treated db/db-mice were subjected to a HOMA-IR test, which was conducted based on a method as described in Biol. Pharm. Bull. 2007; 30:2196-2200. Briefly, mouse insulin enzyme immunoassay ELISA kit was used to measure the plasma insulin concentration. Insulin resistance was determined by the homeostasis model assessment (HOMA) method.

[4] = test system: Glut4 (glucose transporter-4); test: Glucose transporter-4 (Glut4) expression assay in soleus muscles; format: in vivo; settings: STZ-induced diabetic mice, 100 mg/kg orally for 14 days, western blot
Protocol: GLUT4 plays an important role in insulin-induced glucose uptake to maintain normal blood glucose levels. In this study, STZ-induced diabetic mice were treated with Compound 1 orally (100 mg/kg) for 14 days; and then normal mice, STZ-induced diabetic, and the Compound 1-treated STZ-mice as described were analyzed for the Glut4 expression in soleus muscles based on the method as described in Biochem J. 1996; 313(Pt 1): 133-140). Briefly, at the end of the experimental period, animals were sacrificed by exsanguinations under diethyl ether anesthesia. Soleus muscles from each animal were excised and weighed. The soleus muscles were homogenized in lysis buffer and centrifugation, and then went to determine the GLUT4 protein expression by western blot analysis.

C2C12 mycrotubes [5] = test: Insulin sensitivity assay (glucose uptake in presence of insulin); format: cell-based; settings: in the presence of insulin 100 nM
Protocol: Differentiated C2C12 mycrotubes (American Type Culture Collection: ATCC) were used to conduct an insulin sensitivity assay, which was performed based on the method as described in Experimental and Molecular Medicine, Vol. 39, No. 2, 222-229, 2007. Briefly, the cells were incubated with different concentrations of Compound 1 in the presence of insulin 100 nM, and then the glucose uptake was measured. AMPK activator AICAR (5-amino-4-carboxamide imidazole riboside 5′-phosphate, […]) was used as a positive control.

[6] = test system: AMP-activated protein kinase (AMPK); test: AMPK phosphorylation assay; format: cell-based; settings: C2C12 myotubes, 0, 1, 3, 10 and 30 μM, 37° C., 1 hour
Protocol: In this study, differentiated C2C12 mycrotubes (American Type Culture Collection: ATCC) were used to conduct an AMPK phosphorylation assay, which was performed based on the method as described in Experimental and Molecular Medicine, Vol. 39, No. 2, 222-229, 2007. Briefly, the cells were cultured as in Example 1 and incubated with different concentrations of Compound 1 (0, 1, 3, 10 and 30 μM) at 37° C. for 1 hour and then cells were lysed. The cell lysate were immunodetected with phosphor-AMPK specific antibody. […] AMPK activator AICAR (5-amino-4-carboxamide imidazole riboside 5′-phosphate, 1 mM) was used as a positive control.

db/db mice [7] = test: Glucose tolerance assay in type II diabetic mice; format: in vivo; settings: 100 mg/kg/day orally 28 days or 30 mg/kg/day i.p. 21 or 28 days
Protocol: Insulin-resistant C57BL/6J-Leprdb/Lepr^db (hereafter, db/db) mice are a well-known mouse model of type II diabetes. See, e.g., Metabolism. 2000; 49:22-31). In this study, the db/db mice (Jackson Laboratory) were orally administered with Compound 1 (100 mg/kg/day) for 28 days, or administered with Compound 1 (30 mg/kg/day) via intraperitoneal (i.p.) injection for 21 days or 28 days. Two hours later, normal mice, db/db-mice, and the Compound 1-treated db/db-mice were subjected to a glucose tolerance assay as described in Example 1. FIGS. 6 to 8 show the results.

acetyl CoA carboxylase = test: Acetyl CoA carboxylase (ACC) phosphorylation assay; format: cell-based; settings: C2C12 mycrotubes, different concentrations
[8] = test system: Streptozotocin (STZ)-induced diabetic mice; test: Glucose tolerance assay in type I diabetic mice; format: in vivo
Protocol: Streptozotocin (STZ)-induced diabetic mice were administered orally with Compound 1 (50 mg/kg). STZ-induced diabetic mice are a well-known mouse model of type I diabetes (insulin dependent). See, e.g., Liu I M, et al., Neuroscience Letters 2001; 307: 81-84.
Two hours later, normal mice, STZ-induced diabetic mice, and the Compound 1-treated STZ-mice as described were subjected to a glucose tolerance assay. Briefly, all of the mice were orally administered with 1 g/kg glucose and the blood glucose levels of these mice were examined at 30, 60, 90, 120 and 150 minutes. In the normal and STZ-diabetic mice, the blood glucose levels elevated 30 minutes after uptake of glucose.
Alternatively, STZ-induced diabetic mice were treated with Compound 1 orally (100 mg/kg) for 14 days. These mice were then orally administered with glucose at a dose of 2 g/kg. Their blood glucose levels were examined 15, 45, 75, and 105 minutes after glucose administration.

[9] = test system: High fat-diet fed (HFD) mice; test: Blood lipid/cholesterol assay in high fat-diet fed mice; format: in vivo; settings: 100 mg/kg orally for 28 days
Protocol: High fat-diet fed (HFD) mice as a type 2 diabetic model were prepared based on the method as previously described in Diabetes 53 (Suppl. 3):S215-S219, 2004). In this study, mice were fed with a high-fat diet (TestDiet, Richmond, Ind., USA; fat content 60% kcal) for 8 weeks to induce type 2 diabetes. The HFD mice were treated with Compound 1 orally (100 mg/kg) for 28 days; and then normal mice, HFD mice, and the Compound 1-treated HFD mice were analyzed for the levels of serum lipids, including total cholesterol, triglyceride, high-density lipoprotein (HDL)-cholesterol, and low-density lipoprotein (LDL)-cholesterol by ELISA kits.

[10] = STZ-induced diabetic mice, 100 mg/kg orally for 14 days, glucose 2 g/kg orally

Compound | phosphorylation of the AMPK alpha-subunit at Thr172 [6] | HOMA-IR levels (db/db mice [3]) | insulin sensitivity (glucose uptake) (C2C12 mycrotubes [5]) | blood glucose levels in STZ-induced diabetic mice (glucose tolerance) [8, 10] | also measured
Cc1cc2c(c(C)c1CCO)C(=O)C(C)(CO)C2 (stereo not shown) [Compound 1, 6-(2-Hydroxy-ethyl)-2-hydroxymethyl-2,5,7-trimethyl-indan-1-one] | increased the phosphorylation of the AMPK alpha-subunit at Thr^172 in a dose dependent manner | significantly reduced the HOMA-IR levels | significantly enhanced the insulin sensitivity | significantly lowered blood glucose levels | HbA1C levels (db/db mice [1]): significantly reduced the HbA1C levels; glucose consumption/uptake (C2C12 mycrotubes [2]): significantly promote glucose consumption/uptake; overexpression of PEPCK mRNA in the liver (PEPCK mRNA): significantly inhibited the overexpression of PEPCK mRNA; redistribution of Glut4 into the cell membrane of soleus muscles [4]: significantly rescued the redistribution of Glut4; glucose intolerance in db/db-mice (db/db mice [7]): significantly improved the glucose intolerance; phosphorylation of acetyl CoA carboxylase at Ser79 (acetyl CoA carboxylase): increased phosphorylation; blood glucose levels at 30 minute after glucose uptake ([8]; STZ-diabetic mice, 50 mg/kg orally, 2 hours before 1 g/kg oral glucose, 30 min): increased only slightly; blood glucose levels 60 minutes after glucose uptake ([8]; STZ-diabetic mice, 50 mg/kg orally, 2 hours before 1 g/kg oral glucose, 60 min): significantly lowered; blood glucose levels 45 minutes after glucose administration ([8]; STZ-induced diabetic mice, 100 mg/kg orally for 14 days, glucose 2 g/kg orally, 45 min): decreased significantly; anti-obesity effects [9]: exhibited anti-obesity effects; serum lipids ([9]; total cholesterol, triglyceride, HDL- and LDL-cholesterol by ELISA): significantly reduced serum lipids
Cc1cc2c(c(C)c1CCO)C(=O)C(C)C2O (stereo not shown) [Compound 4] | the same effect |  |  |  | 
Cc1cc2c(c(C)c1CCO)C(=O)C(C)(C)C2O (stereo not shown) [Compound 7] | the same effect | the same effect | the same effect | the same effect | 

Continued, in another order:

phosphorylation of the AMPK alpha-subunit at Thr172 [6] | Compound | HOMA-IR levels (db/db mice [3]) | insulin sensitivity (glucose uptake) (C2C12 mycrotubes [5]) | blood glucose levels in STZ-induced diabetic mice (glucose tolerance) [8, 10] | also measured
the same effect | Cc1cc2c(c(C)c1CCOC1OC(CO)C(O)C(O)C1O)C(=O)C(C)(C)C2 (stereo not shown) [Compound 52] |  |  |  | 
the same effect | Cc1cc2c(c(C)c1CCO)C(=O)C(C)(C)C2OC1OC(CO)C(O)C(O)C1O (stereo not shown) [Compound 73] | the same effect | the same effect | the same effect | 
